US20100144712A1 (priority 2007, published 2010)
≈ marks a conversion by molar mass, not a printed value.

Legend:
Assay type in all cases: cell-based
[1] = tested on: Aspergillus fumigatus (ATCC 16424); assay: In vitro antifungal activity (MIC80), Aspergillus fumigatus ATCC 16424; settings: Aspergillus fumigatus, ATCC16424, Table 2, ATCC 16424; read-out: Minimal inhibitory concentration (MIC80)
Method: (§1) In vitro antifungal activities of the inventive antifungal compounds were evaluated using test strains including Candida albican (ATCC 90873, 204276, 62342, 64124, 64550, 96901, MYA-573, MYA-574, MYA-575, MYA-576, MYA-1003) and Aspergillus fumigatus (ATCC 16424). Test samples and positive control samples were prepared by dissolving the inventive compounds and comparative compounds, i.e., amphotericin B, fluconazole and itraconazole, in DMSO, respectively, and each successively diluted with medium to obtain test and positive control solutions having test compound concentrations of 0.125 μg/ml to a maximum concentration not generating turbidity. Minimal inhibitory concentration (MIC80) of each compound was determined as the lowest concentration of the test compounds required to reduce growth by 80% relative to a control strain not treated.
(§2) 1) Test strain: Candida albican ATCC 90873, 204276, 62342, 64124, 64550, 96901, MYA-573, MYA-574, MYA-575, MYA-576, MYA-1003, and Aspergillus fumigatus ATCC 16424 were commercially obtained from The American Type Culture Collection (ATCC) and subcultured in CHEMON Co. Ltd. (amphotericin B was commercially purchased from Sigma, and fluconazole and itraconazole were prepared according to methods described in British Patent No. 2,099,818; and U.S. Pat. No. 4,267,179, respectively).
(§3) 2) Medium and culture condition: Candida albican was cultured in Sabourad Dextrose Agar, YM Agar or Potato Dextrose Agar according to ATCC information at a temperature of 37° C., 35° C., 30° C. or 25° C. Aspergillus fumigatus was cultured in Malt Extract Agar or Potato Dextrose Agar at a temperature ranging from 24 to 27° C.
(§4) 3) Preparation of test samples: the inventive compounds and comparative compounds were each diluted with DMSO to obtain 1 to 2 ml of a test sample in a concentration of 100-folds of the determining maximum concentration (256 μg/ml).
(§5) The test samples were each successively diluted with RPMI 1640 to obtain test solutions having concentrations of […] in a 12×75 mm sterilized disposable culture tube. The final concentration of DMSO was adjusted to […] (v/v).
(§6) 5) Preparation of strain solution and inoculation
(§7) Candida albican strains were each subcultured in Sabourad Dextrose Agar, YM Agar or Potato Dextrose Agar medium at 35° C. for 2˜3 days. In the case of yeasts, a single colony was taken from prominent colonies and suspended in 0.85% sterile physiological saline solution and the turbidity of the suspension was adjusted to 80˜82% at 530 nm, and then diluted 50-fold with RPMI 1640 medium to 1.0×10^3˜5.0×10^3 CFU/ml. The turbidity of fungi was adjusted to 80˜82% and the suspension was diluted 50-fold to […]. Aspergillus fumigatus strains were subcultured in Malt Extract Agar for 7˜10 days, and a single colony was taken from prominent colonies and suspended in 0.85% sterile physiological saline solution and the suspension was adjusted to 0.108 at 530 nm, and then diluted 1000-fold with RPMI 1640 medium to 0.4×10^2˜5×10^4 CFU/ml. The turbidity of fungi was adjusted to 80˜82% and the suspension was diluted 50-fold to 0.4102˜0.5104 CFU/ml.
(§8) The strain solutions thus obtained were each seeded into a sterilized 96-well microplate, 0.1 ml of each test solution were added thereto, and […] of alamarblue was treated to each well (Biosource, #DAL1100). This procedure was repeated 2 times.
(§9) Minimal inhibitory concentration (MIC80) of each compound was determined as the lowest concentration of the test compounds required to reduce growth by 80% relative to a control strain not treated.
MIC80 of each of the compounds of which antifungal activities can be confirmed by Table 2 was determined using other test strains, i.e., Aspergillus fumigatus ATCC 16424 and MYA-1163, Aspergillus terreus ATCC 28301, Aspergillus flavus ATCC MYA-1004, and Aspergillus niger ATCC 9142.

[2] = tested on: Candida albican ATCC 90873; assay: In vitro antifungal activity (MIC80), Candida albican ATCC 90873; settings: Candida, ATCC90873; Table 2, ATCC 90873; read-out: Minimal inhibitory concentration (MIC80)
How it was run: (§10)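 Broth microdilution in RPMI 1640 with 2% (v/v) final DMSO, test solutions 0.25 to 256 […]. Inoculum of 1.0×10^3–5.0×10^3 CFU/ml came from colonies grown 2–3 days at 35 °C, and alamarBlue was added. MIC80 is the lowest concentration reducing growth by 80% versus untreated control.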

[3] = tested on: Candida albican ATCC 96901; assay: In vitro antifungal activity (MIC80), Candida albican ATCC 96901; settings: Candida, ATCC96901; Table 2, ATCC 96901; read-out: Minimal inhibitory concentration (MIC80)
How it was run: as §10

[4] = tested on: Candida albican ATCC MYA-1003; assay: In vitro antifungal activity (MIC80), Candida albican ATCC MYA-1003; settings: Candida; Table 2, MYA 1003; read-out: Minimal inhibitory concentration (MIC80)
How it was run: as §10

[5] = tested on: Candida albican ATCC 204276; assay: In vitro antifungal activity (MIC80), Candida albican ATCC 204276; settings: ATCC204276, Table 2, 204276, read-out: Minimal inhibitory concentration (MIC80)
Method: as §1, §2, §3, §4, §5, §6, §7, §8, §9

[6] = tested on: Candida albican ATCC 62342; assay: In vitro antifungal activity (MIC80), Candida albican ATCC 62342; settings: Candida, ATCC62342; Table 2, 62342; read-out: Minimal inhibitory concentration (MIC80)
How it was run: as §10

[7] = tested on: Candida albican ATCC 64124; assay: In vitro antifungal activity (MIC80), Candida albican ATCC 64124; settings: Candida, ATCC64124; Table 2, 64124; read-out: Minimal inhibitory concentration (MIC80)
How it was run: as §10

[8] = tested on: Candida albican ATCC 64550; assay: In vitro antifungal activity (MIC80), Candida albican ATCC 64550; settings: Candida, ATCC64550; Table 2, 64550; read-out: Minimal inhibitory concentration (MIC80)
How it was run: as §10

[9] = tested on: Candida albican ATCC MYA-573; assay: In vitro antifungal activity (MIC80), Candida albican ATCC MYA-573; settings: Candida; Table 2, MYA 573; read-out: Minimal inhibitory concentration (MIC80)
How it was run: as §10

[10] = tested on: Candida albican ATCC MYA-574; assay: In vitro antifungal activity (MIC80), Candida albican ATCC MYA-574; settings: Candida; Table 2, MYA 574; read-out: Minimal inhibitory concentration (MIC80)
How it was run: as §10

[11] = tested on: Candida albican ATCC MYA-575; assay: In vitro antifungal activity (MIC80), Candida albican ATCC MYA-575; settings: Candida; Table 2, MYA 575; read-out: Minimal inhibitory concentration (MIC80)
How it was run: as §10

[12] = tested on: Candida albican ATCC MYA-576; assay: In vitro antifungal activity (MIC80), Candida albican ATCC MYA-576; settings: Candida; Table 2, MYA 576; read-out: Minimal inhibitory concentration (MIC80)
How it was run: as §10

| Compound | MIC80 [1] | MIC80 [2] | MIC80 [3] | MIC80 [4] | MIC80 [5] | MIC80 [6] | MIC80 [7] | MIC80 [8] | MIC80 [9] | MIC80 [10] | MIC80 [11] | MIC80 [12] |
| --- | --- | --- | --- | --- | --- | --- | --- | --- | --- | --- | --- | --- |
| C[C@@H](N1CCN(c2nc3ccccc3o2)CC1)[C@](O)(Cn1cncn1)c1ccc(F)cc1F [Example 1, (2R,3R)-3-(4-(benzooxazol-2-yl)piperazin-1-yl)-2-(2,4-difluorophenyl)-1-(1H-1,2,4-triazol-1-yl)butan-2-ol] | 0.5 µg/mL (≈ 1.1 µM) | 0.125 µg/mL (≈ 0.275 µM) | 4 µg/mL (≈ 8.8 µM) | 128 µg/mL (≈ 282 µM) | 0.125 µg/mL (≈ 0.275 µM) | 0.125 µg/mL (≈ 0.275 µM) | 4 µg/mL (≈ 8.8 µM) | 1 µg/mL (≈ 2.2 µM) | 1 µg/mL (≈ 2.2 µM) | 32 µg/mL (≈ 70.4 µM) | 32 µg/mL (≈ 70.4 µM) | 0.125 µg/mL (≈ 0.275 µM) |
| C[C@@H](N1CCN(c2ccccn2)CC1)[C@](O)(Cn1cncn1)c1ccc(F)cc1F [Example 16, (2R,3R)-2-(2,4-difluorophenyl)-3-(4-(pyridin-2-yl)piperazin-1-yl)-1-(1H-1,2,4-triazol-1-yl)butan-2-ol] | 16 µg/mL (≈ 38.6 µM) | 0.125 µg/mL (≈ 0.302 µM) | 16 µg/mL (≈ 38.6 µM) | 64 µg/mL (≈ 154 µM) | 0.125 µg/mL (≈ 0.302 µM) | 1 µg/mL (≈ 2.41 µM) | 8 µg/mL (≈ 19.3 µM) | 1 µg/mL (≈ 2.41 µM) | 0.5 µg/mL (≈ 1.21 µM) | 32 µg/mL (≈ 77.2 µM) | 32 µg/mL (≈ 77.2 µM) | 0.125 µg/mL (≈ 0.302 µM) |
| C[C@@H](N1CCN(Cc2cccs2)CC1)[C@](O)(Cn1cncn1)c1ccc(F)cc1F [Example 44, (2R,3R)-2-(2,4-difluorophenyl)-3-(4-((thiophen-2-yl)methyl)piperazin-1-yl)-1-(1H-1,2,4-triazol-1-yl)butan-2-ol] | 0.5 µg/mL (≈ 1.15 µM) | 0.125 µg/mL (≈ 0.288 µM) | 64 µg/mL (≈ 148 µM) | > 128 µg/mL | 0.125 µg/mL (≈ 0.288 µM) | 4 µg/mL (≈ 9.23 µM) | 32 µg/mL (≈ 73.8 µM) | 4 µg/mL (≈ 9.23 µM) | 2 µg/mL (≈ 4.61 µM) | 32 µg/mL (≈ 73.8 µM) | 32 µg/mL (≈ 73.8 µM) | 0.125 µg/mL (≈ 0.288 µM) |
| C[C@@H](N1CCN(C(=O)c2nc(-c3ccc(F)cc3)ns2)CC1)[C@](O)(Cn1cncn1)c1ccc(F)cc1F [Example 52, (3-(4-fluorophenyl)-1,2,4-thiadiazol-5-yl)(4-((2R,3R)-3-(2,4-difluorophenyl)-3-hydroxy-4-(1H-1,2,4-triazol-1-yl)butan-2-yl)piperazin-1-yl)methanone] | 1 µg/mL (≈ 1.84 µM) | 0.125 µg/mL (≈ 0.23 µM) | 32 µg/mL (≈ 58.9 µM) | > 128 µg/mL | 0.125 µg/mL (≈ 0.23 µM) | 4 µg/mL (≈ 7.36 µM) | > 128 µg/mL | 4 µg/mL (≈ 7.36 µM) | 4 µg/mL (≈ 7.36 µM) | > 128 µg/mL | > 128 µg/mL | 0.125 µg/mL (≈ 0.23 µM) |
